The record followed here is patent publication US20260306640A1, “TECHNOLOGIES TARGETING CELL STATES” (Auron Therapeutics, Inc., priority 2023, published 2026).

Where two headings read alike, the source gives them in different places.

In one series the test system is NCI-H1048 cells. The series is described as follows: Cell growth inhibition (cell count, 8 days), small cell lung cancer NCI-H1048 cells. As to conditions: Homo sapiens, 192 h, cell count relative to DMSO control after 8 days, FIG. 1 (C). The series is classed as cell-based. Here is the method: (§1) FIG. 1. Provided compounds can provide various activities including inhibiting tumor growth in vivo. (A): Provided compounds can inhibit tumor growth in vivo. Nude Balb/c mice were inoculated with NCI-H1048 cells in Matrigel. Tumors were allowed to grow up to about 200 mm^3 and mice were then randomized into two groups. Mice were dosed intraperitoneally (i.p.) once per week with vehicle or 30 mg/kg compound 22. Tumor size was measured every three to four days and mice were sacrificed once vehicle tumors reached 2000 mm^3. Error bar is SEM. Dosing started at day 17 post tumor inoculation. (B): Provided technologies can reduce KAT2A and KAT2B levels and histone acetylation levels. […] Vehicle is DMSO. […] Cell count data relative to DMSO control after 8 days of treatment with compound 22 are presented as examples to confirm inhibition. GI50=6 nM. (D): Provided technologies can inhibit tumor growth in vivo. Nude balb/c mice inoculated with H1048 tumors were dosed intraperitoneally once per week (qw i.p.) with vehicle (HbCD) or compound 22. Average tumor volumes+/−SEM from 6 mice are represented. […] See also (A). […] Certain body weights relative to starting weight are presented as examples to confirm tolerability and safety. (F): Provided technologies can reduce KAT2A and KAT2B levels and histone acetylation levels in tumor in vivo. […]

The target in another series is KAT2B (Homo sapiens, UniProt Q92831). Kind of series: KAT2B degradation, Western Blot (Jess), NCI-H1048 cells. Type of series: cell-based. Also noted: degrader, Western blot (Jess). The procedure, abridged:
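NCI-H1048 cells grown in HITES medium with 5% FBS were treated with compounds for 24 h at 37° C. Lysates were run by capillary Western (Jess) with KAT2A or KAT2B antibodies and chemiluminescent detection. DC50 derived from percent protein reduction versus DMSO control.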

Series [1] can be described thus: Tolerability / body weight relative to starting weight in nude Balb/c mice bearing H1048 tumors. As to conditions: once per week i.p.; 30 mg/kg; FIG. 1 (D), (E). Type of series: in vivo. As to the method:
as §1

For series [2], the system named is histone acetylation (e.g., AcH3K9). The series is described as follows: Histone H3K9 acetylation (AcH3K9), Western Blot, MOLM-13 cells. Type of series: cell-based. As to conditions: FIG. 2. As to the method:
In some embodiments, an assessment is performed using cells. In some embodiments, cells were treated with various compounds before assessing KAT2A and/or KAT2B levels, histone (e.g., H3K9) acetylation levels, cell states, growth, etc.
Western Blot: In some assessments, MOLM13, NCI-H1048, LASCPC-01 and NEPC organoid cells were treated with compounds at certain concentrations for certain periods of time, and cell pellets were lysed by adding 1-part 4×laemmli Sample buffer (e.g., Bio-Rad Catalog #1610747) along with Mercaptoethanol (e.g., Bio-Rad Catalog #1610710) according to manufacturer's instructions, and 1-part RIPA buffer with 2×protease and phosphatase inhibitor. The samples were sonicated 30% amplitude, 35 seconds on and 35 seconds off for 1 cycle and boiled at 95° C. for 5 minutes. 30-35 μL of samples were loaded on a 4-15% Criterion™ TGX Stain-Free™ Protein Gel (Bio-rad, 5678084). In some assessments, NCI-H1048 flash frozen tumor pieces were resuspended in RIPA buffer and homogenized on TissueLyser II with steel beads at 30 Hz for 3 minutes. Samples were then centrifuged at […] at 4° C. for 15 minutes. BCA protein determination was performed and samples normalized for 1.95 ug/uL. 19.5 uL were loaded and run on similar gels as cell pellets. […]

KAT2B, sequence (Q92831 whole entry): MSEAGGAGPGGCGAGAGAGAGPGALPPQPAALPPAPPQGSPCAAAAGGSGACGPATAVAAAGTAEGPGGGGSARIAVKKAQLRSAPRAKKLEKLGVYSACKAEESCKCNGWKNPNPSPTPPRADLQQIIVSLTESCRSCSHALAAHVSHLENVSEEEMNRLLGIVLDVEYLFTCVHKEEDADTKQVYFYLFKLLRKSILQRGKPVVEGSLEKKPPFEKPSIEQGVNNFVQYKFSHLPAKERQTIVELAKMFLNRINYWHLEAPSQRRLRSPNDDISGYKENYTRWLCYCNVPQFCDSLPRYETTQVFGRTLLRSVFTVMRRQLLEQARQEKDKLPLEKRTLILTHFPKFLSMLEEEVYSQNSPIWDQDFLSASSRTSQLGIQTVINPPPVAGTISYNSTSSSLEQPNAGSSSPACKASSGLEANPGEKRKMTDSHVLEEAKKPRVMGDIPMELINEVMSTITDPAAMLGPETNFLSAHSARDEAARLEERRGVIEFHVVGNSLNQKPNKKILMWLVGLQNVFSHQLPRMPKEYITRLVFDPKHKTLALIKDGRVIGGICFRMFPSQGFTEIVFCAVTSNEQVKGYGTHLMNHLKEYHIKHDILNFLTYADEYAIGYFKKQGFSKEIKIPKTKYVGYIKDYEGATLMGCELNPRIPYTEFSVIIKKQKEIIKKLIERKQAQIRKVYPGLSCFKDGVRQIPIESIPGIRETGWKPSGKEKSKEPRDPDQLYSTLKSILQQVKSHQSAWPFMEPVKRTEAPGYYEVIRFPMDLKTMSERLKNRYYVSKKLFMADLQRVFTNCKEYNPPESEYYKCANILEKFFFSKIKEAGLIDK

`CN1C[C@H](Nc2cnn(C)c(=O)c2Br)C[C@H](c2ccc(C(=O)N3CCC(CN4CCN(c5ccc6c(c5)CN(C5CCC(=O)NC5=O)C6=O)CC4)CC3)cc2)C1` (stereo partly drawn) [Compound 22, 3-(5-(4-((1-(4-((3R,5R)-5-((5-bromo-1-methyl-6-oxo-1,6-dihydropyridazin-4-yl)amino)-1-methylpiperidin-3-yl)benzoyl)piperidin-4-yl)methyl)piperazin-1-yl)-1-oxoisoindolin-2-yl)piperidine-2,6-dione]: halving of growth in the series with NCI-H1048 cells (GI50) required 6 nM. Also, the EC90 at KAT2B (24 h, NCI-H1048, KAT2B, read-out: DC90 (the source's name)) was determined as 1.44 nM. Besides, the DC50 (usually the midpoint of the concentration-degradation curve) was 0.04 nM at KAT2B (NCI-H1048, KAT2B, read-out: DC50) and under 1 nM at KAT2B (NCI-H1048 cells, KAT2B, 24 h, Western Blot, vs DMSO, read-out: KAT2B NCI-H1048 DC50). Moreover, at KAT2B (NCI-H1048 cells, FIG. 1), the KAT2B levels result was “potently reduce KAT2A and KAT2B levels”. In series [1], the “tolerability (body weights relative to starting weight)” value is recorded as “well tolerated”. In series [2], the “histone acetylation (e.g., AcH3K9) levels” value was “reduce histone acetylation (e.g., AcH3K9) levels”.
